Data from patent publication US20090155440A1, “Salt Enhancing Compounds and Use” (GIVAUDAN SA, priority 2005, published 2009).

How the values were obtained:
Format in all cases: in vivo
sensory panel [1] = assay: Sensory triangle test in chicken broth, Examples 3a and 3b; settings: for Kokumi Intensity (0-5): scale 0 to 5, 5 most intensive, reference 2; for Sensory results (compared to 1): chicken broth, Example 3b
Protocol: (§1) Unless otherwise indicated, all sensory tests are triangle tests and are performed according to the guidelines in “Amtliche Sammlung von Untersuchungsverfahren nach § 35 LMBG (Lebensmittel-und Bedarfsgegenständegesetz)”; L 00.90 7, Untersuchung von Lebensmitteln, Sensorische Prüfverfahren, Dreiecksprüfung (Übernahme der gleichnahmigen Deutschen Norm DIN ISO 4120, Ausgabe Januar 1995), as follows:
The sensory panel is trained to evaluate the taste of aqueous solutions (4 ml each) of the following standard taste compounds by using a triangle test as described in the literature (Wieser and Belitz, Z. Lebensm. Unters. Forsch., 1975,159, 65-72): sucrose (40 mmol/L) for sweet taste; citric acid (5 mmol/L) for sour taste; NaCl (12 mmol/L) for salty taste; caffeine (2 mmol/L) for bitter taste; and monosodium glutamate (MSG; 6 mmol/L) for umami taste. For kokumi taste, a solution of glutathione (10 mmol/L) in diluted chicken broth concentrate (Goumet Bouillon Huhn, Maggi, Singen, Germany; 3 g/100 g bottled water (Evian®)) is prepared and compared to the taste of chicken broth with no glutathione added.
(§2) For recording the taste profiles, samples are prepared as indicated in the examples below. Taste profiles of samples are determined in a triangle test in three different sessions. Panellists refrain from eating or drinking for at least 1 hour prior to the session. At the start of the session and before each trial, the subject rinsed with water and expectorated. The participants receive a set of two blanks and one taste sample. Liquid samples are swirled around in the mouth briefly and expectorated. Solid samples are chewed for 20 seconds and then expectorated. […] Each sample with additive is compared to two reference samples without additives. Kokumi intensity is rated from 0-5 according to a scale from 0 to 5 (with 5 most intensive). The additive is added to a consumable and the sample is homogenised. The samples are presented to the sensory panel directly after homogenisation. The sensory panel included 6-8 trained individuals with exception of example 4, here the panel consists of 10 trained individuals.
Chicken broth is prepared by diluting 3 g of a chicken broth concentrate (Gourmet Bouillon Huhn, Nestle) with 100 ml water. Additives are added as specified in table below in a concentration of 10 mmol/L. The pH-value of all samples is adjusted to 6.5 using formic acid (0.1 mol/L) or sodium hydroxide (0.1 mol/L).
Kokumi intensity is rated according to a scale from 0 to 5 (with 5 most intensive). […] The additive is added to a consumable and the sample is homogenised.
The samples are presented to the sensory panel directly after homogenisation. The sensory panel included 8 trained individuals.
The samples are tested as described above in example 3a.

sensory panel [2] = assay: Sensory test in cream cheese, Example 4; settings: for Sensory results (compared to 1): versus reference without additives; for Sensory results compared to 2: versus NaCl Reference (2000 ppm)
Protocol: as §1, §2
Samples are compared by a panel of 10 trained panelists.

sensory panel [3] = assay: Isointensity triangle test, S-substituted peptides in sodium salt solution (30 mmol/L NaCl), Example 1a; settings: compound 10 mmol/L in aqueous NaCl 30 mmol/L, pH 6.5; reference without additive 30 mmol/L
Protocol: Unless otherwise indicated, all sensory tests are triangle tests and are performed according to the guidelines in “[…] von […]-und Bedarfsgegenständegesetz)”; L 00.90 7, Untersuchung von Lebensmitteln, Sensorische […] Deutschen Norm DIN ISO 4120, Ausgabe Januar 1995), as follows: The sensory panel is trained to evaluate the taste of aqueous solutions (4 ml each) of the following standard taste compounds by using a triangle test as described in the literature ([…] and Belitz, Z. Lebensm. Unters. Forsch., 1975,159, 65-72): sucrose (40 mmol/L) for sweet taste; citric acid (5 mmol/L) for sour taste; […] All sensory analyses are performed in a sensory panel room at 22-25° C. over three different sessions by a trained panel of 8 to 10 individuals. For recording the taste profiles, samples are prepared as indicated in the examples below. Taste profiles of samples are determined in a triangle test in three different sessions. Panellists refrain from eating or drinking for at least 1 hour prior to the session. At the start of the session and before each trial, the subject rinsed with water and expectorated. The participants receive a set of two blanks and one taste sample. Liquid samples are swirled around in the mouth briefly and expectorated. Solid samples are chewed for 20 seconds and then expectorated. […] Each sample with additive is compared to two reference samples without additives. Kokumi intensity is rated from 0-5 according to a scale from 0 to 5 (with 5 most intensive). The additive is added to a consumable and the sample is homogenised. The samples are presented to the sensory panel directly after homogenisation. The sensory panel included 6-8 trained individuals with exception of example 4, here the panel consists of 10 trained individuals. The compounds listed in the table below are dissolved in an aqueous solution (pH 6.5) of NaCl (30 mmol/L).

sensory panel [4] = assay: Isointensity triangle test in sodium and potassium salt solution (30 mmol/L NaCl, 15 mmol/L KCl), Example 1b; settings: NaCl 30 mmol/L + KCl 15 mmol/L, salt enhancer 10 mmol/L; without enhancer 40 mmol/L
Protocol: Unless otherwise indicated, all sensory tests are triangle tests and are performed according to the guidelines in “[…] von […]-und Bedarfsgegenständegesetz)”; L 00.90 7, Untersuchung von Lebensmitteln, Sensorische […] Deutschen Norm DIN ISO 4120, Ausgabe Januar 1995), as follows: For recording the taste profiles, samples are prepared as indicated in the examples below. Taste profiles of samples are determined in a triangle test in three different sessions. Panellists refrain from eating or drinking for at least 1 hour prior to the session. At the start of the session and before each trial, the subject rinsed with water and expectorated. The participants receive a set of two blanks and one taste sample. Liquid samples are swirled around in the mouth briefly and expectorated. Solid samples are chewed for 20 seconds and then expectorated. […] Each sample with additive is compared to two reference samples without additives. Kokumi intensity is rated from 0-5 according to a scale from 0 to 5 (with 5 most intensive). The additive is added to a consumable and the sample is homogenised. The samples are presented to the sensory panel directly after homogenisation. […] KCl is often used in small concentrations to reduce sodium without loss of salty taste. […] For the samples compared and the results see the table below.

sensory panel [5] = assay: Sensory test in ketchup, Example 5; settings: additive 500 ppm
Protocol: as §1
as §2, with “The sensory panel included 6-8 trained individuals with exception of example 4, here the panel consists of 10 trained individuals.” left out

With N[C@@H](CCC(=O)N[C@@H](CS)C(=O)NCC(=O)O)C(=O)O [GSH reduced, glutathione] the “Kokumi Intensity (0-5)” value (sensory panel [1]; chicken broth pH 6.5, additive 10 mmol/L) was 3.5.

In the case of N[C@@H](CCC(=O)O)C(=O)[O-].[Na+] [MSG, monosodium glutamate], the “Sensory results (compared to 1)” value (sensory panel [1]; additive 2000 ppm) was “Higher umami intensity”.

[Cl-].[Na+] [NaCl, sodium chloride, reference compound] was tested, and the “Sensory results (compared to 1)” value (sensory panel [1]; additive 2000 ppm) was “More salty” and the “Sensory results (compared to 1)” value (sensory panel [2]; additive 2000 ppm) was “More salty”.

CCOC(=O)[C@@H](N)CSC(CC(=O)O)C(=O)O (stereo partly drawn) [S-(α,β-dicarboxyethyl) cysteine ethyl ester] was tested, and the “concentration of an isointense NaCl-solution” value (“concentration” below) (sensory panel [3]) was 42 mmol/L.

With COC(=O)[C@@H](N)CSC(CC(=O)O)C(=O)O (stereo partly drawn) [S-(α,β-dicarboxyethyl) cysteine methyl ester] the “concentration” value (sensory panel [3]) was 38 mmol/L.

With N[C@@H](CCC(=O)N[C@@H](CSC(CC(=O)O)C(=O)O)C(=O)NCC(=O)O)C(=O)O (stereo partly drawn) [S-(α,β-dicarboxyethyl) γ-L-glutamyl-L-cysteinyl-glycine] the “concentration” value (sensory panel [3]) was 48 mmol/L, the “concentration” value (sensory panel [4]) was 57 mmol/L and the “Kokumi Intensity (0-5)” value (sensory panel [1]; chicken broth pH 6.5, additive 400 ppm) was 3.5. The “Sensory results compared to 2” value (sensory panel [2]; additive 1000 ppm) was “greater effect on saltiness than the addition of NaCl” and the “Sensory results (compared to 1)” value (sensory panel [5]) was “Slightly more salty”.

CCOC(=O)C(CSC(CC(=O)O)C(=O)O)NC(=O)CC[C@H](N)C(=O)O (stereo partly drawn) [S-(α,β-dicarboxyethyl) γ-L-glutamyl-cysteine ethyl ester] was tested, and the “concentration” value (sensory panel [3]) was 48 mmol/L.

For N[C@@H](CCC(=O)N[C@@H](CSC(CC(=O)O)C(=O)O)C(=O)O)C(=O)O (stereo partly drawn) [S-(α,β-dicarboxyethyl) γ-L-glutamyl-cysteine], the “concentration” value (sensory panel [3]) was 60 mmol/L and the “Sensory results compared to 2” value (sensory panel [2]; additive 1000 ppm) was “greater effect on saltiness than the addition of NaCl”.

For N[C@@H](CSC(CC(=O)O)C(=O)O)C(=O)O (stereo partly drawn) [S-(α,β-dicarboxyethyl)-L-cysteine, S-(α,β-dicarboxyethyl) cysteine], the “concentration” value (sensory panel [3]) was 40 mmol/L, the “Sensory results (compared to 1)” value (sensory panel [1]; additive 400 ppm) was “More salty” and the “Sensory results compared to 2” value (sensory panel [2]; additive 1000 ppm) was “Slightly more salty”. For the same molecule, the “Sensory results (compared to 1)” value (sensory panel [2]; additive 1000 ppm) was “More salty”.

N[C@@H](CCC(=O)N[C@@H](CSCCC(=O)O)C(=O)NCC(=O)O)C(=O)O [β-S-(carboxyethyl) γ-L-glutamyl-L-cysteinyl-glycine] was tested, and the “concentration” value (sensory panel [3]) was 38 mmol/L.

In the case of N[C@@H](CCC(=O)N[C@@H](CSC(CCC(=O)O)C(=O)O)C(=O)NCC(=O)O)C(=O)O (stereo partly drawn) [β-S-(α,γ-dicarboxypropyl) γ-L-glutamyl-L-cysteinyl-glycine], the “concentration” value (sensory panel [3]) was 48 mmol/L.
